Assay results reported in US9738652B2, “Spiro urea compounds as RSV antiviral compounds” (priority 2014, dated 2017).

How the values were obtained:
[1] = Cytotoxicity in HeLa cells (ATPlite, CC50) used for selectivity index; conditions: human
Method: The wells contain 0.05% DMSO per volume. Cells were incubated at 37° C. in a 5% CO2 atmosphere. […] In parallel, compounds were incubated for three days in a set of white 384-well microtiter plates (Corning) and the cytotoxicity of compounds in HeLa cells was determined by measuring the ATP content of the cells using the ATPlite kit (Perkin Elmer, Zaventem, Belgium) according to the manufacturer's instructions. The CC50 was defined as the 50% concentration for cytotoxicity.

rgRSV224 virus = test: Antiviral activity: rgRSV224 (GFP) replication in HeLa cells; conditions: human respiratory syncytial virus, 72 h, read-out: RSV HELA pEC50 (converted)
Method: Black 384-well clear-bottom microtiter plates (Corning, Amsterdam, The Netherlands) were filled via acoustic drop ejection using the echo liquid handler (Labcyte, Sunnyvale, Calif.). 200 nL of compound stock solutions (100% DMSO) were transferred to the assay plates. 9 serial 4-fold dilutions of compound were made, creating per quadrant the same compound concentration. The assay was initiated by adding 10 μL of culture medium to each well (RPMI medium without phenol red, 10% FBS-heat inactivated, 0.04% gentamycin (50 mg/mL). All addition steps are done by using a multidrop dispenser (Thermo Scientific, Erembodegem, Belgium). Next, rgRSV224 virus (MOI=1) diluted in culture medium was added to the plates. rgRSV224 virus is an engineered virus that includes an additional GFP gene (Hallak L K, Spillmann D, Collins P L, Peeples M E. Glycosaminoglycan sulfation requirements for respiratory syncytial virus infection; Journal of virology (2000), 74(22), 10508-13) and was in-licensed from the NIH (Bethesda, Md., USA). Finally, 20 μL of a HeLa cell suspension (3,000 cells/well) were plated. Medium, virus- and mock-infected controls were included in each test. The wells contain 0.05% DMSO per volume. Cells were incubated at 37° C. in a 5% CO2 atmosphere. Three days post-virus exposure, viral replication was quantified by measuring GFP expression in the cells by an in house developed MSM laser microscope (Tibotec, Beerse, Belgium). The EC50 was defined as the 50% inhibitory concentration for GFP expression. In parallel, compounds were incubated for three days in a set of white 384-well microtiter plates (Corning) and the cytotoxicity of compounds in HeLa cells was determined by measuring the ATP content of the cells using the ATPlite kit (Perkin Elmer, Zaventem, Belgium) according to the manufacturer's instructions. The CC50 was defined as the 50% concentration for cytotoxicity.

| SMILES | selectivity ratio at 3 days [1] | EC50 (rgRSV224 virus) |
| --- | --- | --- |
| CS(=O)(=O)CCCn1c(CN2C(=O)C3(CN(C(=O)NCCN4CCOCC4)C3)c3ccccc32)cc2cc(Cl)ccc21 [Co. No. 16, 1′-[[5-chloro-1-(3-methylsulfonylpropyl)indol-2-yl]methyl]-N-(2-morpholinoethyl)-2′-oxo-spiro[azetidine-3,3′-indoline]-1-carboxamide] | 159000 | 0.339 nM |
| CC(C)(CO)NC(=O)N1CC2(C1)C(=O)N(Cc1cc3cc(Cl)ccc3n1CCCS(C)(=O)=O)c1ccccc12 [Co. No. 13, 1′-[[5-chloro-1-(3-methylsulfonylpropyl)indol-2-yl]methyl]-N-(2-hydroxy-1,1-dimethyl-ethyl)-2′-oxo-spiro[azetidine-3,3′-indoline]-1-carboxamide] | 43400 | 1 nM |
| CC(C)NC(=O)N1CCC2(CC1)C(=O)N(Cc1cc3cc(Cl)ccc3n1CCCS(C)(=O)=O)c1cnccc12 [Co. No. 27, 1′-[[5-chloro-1-(3-methylsulfonylpropyl)indol-2-yl]methyl]-N-isopropyl-2′-oxo-spiro[piperidine-4,3′-pyrrolo[2,3-c]pyridine]-1-carboxamide] | 300000 | 0.257 nM |
| CC(C)NC(=O)N1CCC2(CC1)C(=O)N(Cc1nc3cc(Cl)ccc3n1CCCC#N)c1cnccc12 [Co. No. 29, 1′-[[5-chloro-1-(3-cyanopropyl)benzimidazol-2-yl]methyl]-N-isopropyl-2′-oxo-spiro[piperidine-4,3′-pyrrolo[2,3-c]pyridine]-1-carboxamide] | > 4.11e+06 | 0.0245 nM |
| N#CCCCn1c(CN2C(=O)C3(CN(C(=O)N[C@H]4C[C@@H](O)C4)C3)c3ccccc32)cc2cc(Cl)ccc21 [Co. No. 8, 1′-[[5-chloro-1-(3-cyanopropyl)indol-2-yl]methyl]-N-(cis-3-hydroxycyclobutyl)-2′-oxo-spiro[azetidine-3,3′-indoline]-1-carboxamide] | > 232000 | < 0.153 nM |
| O=C(NC1CC(O)C1)N1CC2(C1)C(=O)N(Cc1nc3nc(Cl)ccc3n1CCCC(F)(F)F)c1ccccc12 (stereo not shown) [Co. No. 24, 1′[[5-chloro-1-(4,4,4-trifluorobutyl)imidazo[4,5-b]pyridin-2-yl]methyl]-N-(3-hydroxycyclobutyl)-2′-oxo-spiro[azetidine-3,3′-indoline]-1-carboxamide] | > 75400 | 1.32 nM |
| O=C(NC1CC(O)C1)N1CC2(C1)C(=O)N(Cc1nc3nc(Cl)ccc3n1CCCCF)c1ccccc12 (stereo not shown) [Co. No. 21, 1′-[[5-chloro-1-(4-fluorobutyl)imidazo[4,5-b]pyridin-2-yl]methyl]-N-(3-hydroxycyclobutyl)-2′-oxo-spiro[azetidine-3,3′-indoline]-1-carboxamide] | > 71400 | 1.41 nM |
| CC(C)(C)OC(=O)N1CCC(NC(=O)N2CC3(C2)C(=O)N(Cc2cc4cc(Cl)ccc4n2CCCC#N)c2ccccc23)CC1 [Co. No. 2, tert-butyl 4-[[1′-[[5-chloro-1-(3-cyanopropyl)indol-2-yl]methyl]-2′-oxo-spiro[azetidine-3,3′-indoline]-1-carbonyl]amino]piperidine-1-carboxylate] | > 50000 | 2 nM |
| CS(=O)(=O)CCCn1c(CN2C(=O)C3(CN(C(=O)NCC(F)(F)F)C3)c3ccccc32)cc2cc(Cl)ccc21 [Co. No. 12, 1′-[[5-chloro-1-(3-methylsulfonylpropyl)indol-2-yl]methyl]-2′-oxo-N-(2,2,2-trifluoroethyl)spiro[azetidine-3,3′-indoline]-1-carboxamide] | 86900 | 0.269 nM |
| N#CCCCn1c(CN2C(=O)C3(CN(C(=O)N[C@H]4C[C@H](O)C4)C3)c3ccccc32)cc2cc(Cl)ccc21 [Co. No. 9, 1′-[[5-chloro-1-(3-cyanopropyl)indol-2-yl]methyl]-N-(trans-3-hydroxycyclobutyl)-2′-oxo-spiro[azetidine-3,3′-indoline]-1-carboxamide] | > 254000 | < 0.153 nM |
| N#CCCCn1c(CN2C(=O)C3(CN(C(=O)NC4CCNCC4)C3)c3ccccc32)cc2cc(Cl)ccc21 [Co. No. 3, 1′-[[5-chloro-1-(3-cyanopropyl)indol-2-yl]methyl]-2′-oxo-N-(4-piperidyl)spiro[azetidine-3,3′-indoline]-1-carboxamide] | 158000 | 0.631 nM |
| CS(=O)(=O)CCCn1c(CN2C(=O)C3(CN(C(=O)N[C@H]4C[C@H](O)C4)C3)c3ccccc32)cc2cc(Cl)ccc21 [Co. No. 11, 1′-[[5-chloro-1-(3-methylsulfonylpropyl)indol-2-yl]methyl]-N-(trans-3-hydroxycyclobutyl)-2′-oxo-spiro[azetidine-3,3′-indoline]-1-carboxamide] | 300000 | 0.245 nM |
| CS(=O)(=O)CCCn1c(CN2C(=O)C3(CN(C(=O)N[C@H]4C[C@@H](O)C4)C3)c3ccccc32)cc2cc(Cl)ccc21 [Co. No. 10, 1′-[[5-chloro-1-(3-methylsulfonylpropyl)indol-2-yl]methyl]-N-(cis-3-hydroxycyclobutyl)-2′-oxo-spiro[azetidine-3,3′-indoline]-1-carboxamide] | > 505000 | < 0.17 nM |
| N#CCCCn1c(CN2C(=O)C3(CN(C(=O)NC4CC(O)C4)C3)c3ccccc32)cc2cc(Cl)ccc21 (stereo not shown) [Co. No. 7, 1′-[[5-chloro-1-(3-cyanopropyl)indol-2-yl]methyl]-N-(3-hydroxycyclobutyl)-2′-oxo-spiro[azetidine-3,3′-indoline]-1-carboxamide] | 103000 | 0.407 nM |
| CC(CO)NC(=O)N1CC2(C1)C(=O)N(Cc1cc3cc(Cl)ccc3n1CCCS(C)(=O)=O)c1ccccc12 (stereo not shown) [Co. No. 14, 1′-[[5-chloro-1-(3-methylsulfonylpropyl)indol-2-yl]methyl]-N-(2-hydroxy-1-methyl-ethyl)-2′-oxo-spiro[azetidine-3,3′-indoline]-1-carboxamide] | 98200 | 0.575 nM |
| CN(C)CCNC(=O)N1CC2(C1)C(=O)N(Cc1cc3cc(Cl)ccc3n1CCCS(C)(=O)=O)c1ccccc12 [Co. No. 17, 1′-[[5-chloro-1-(3-methylsulfonylpropyl)indol-2-yl]methyl]-N-[2-(dimethylamino)ethyl]-2′-oxo-spiro[azetidine-3,3′-indoline]-1-carboxamide] | 39300 | 1.26 nM |
| CC(C)NC(=O)N1CC2(C1)C(=O)N(Cc1nc3nc(Cl)ccc3n1CCCCF)c1ccccc12 [Co. No. 20, 1′-[[5-chloro-1-(4-fluorobutyl)imidazo[4,5-b]pyridin-2-yl]methyl]-N-isopropyl-2′-oxo-spiro[azetidine-3,3′-indoline]-1-carboxamide] | > 80200 | 1.26 nM |
| CC(C)NC(=O)N1CC2(C1)C(=O)N(Cc1nc3cc(Cl)ccc3n1CCCC#N)c1ccccc12 [Co. No. 19, 1′-[[5-chloro-1-(3-cyanopropyl)benzimidazol-2-yl]methyl]-N-isopropyl-2′-oxo-spiro[azetidine-3,3′-indoline]-1-carboxamide] | > 1.11e+06 | 0.0912 nM |
| CC(C)NC(=O)N1CC2(C1)C(=O)N(Cc1nc3cc(Cl)ccc3n1CCCS(C)(=O)=O)c1ccccc12 [Co. No. 18, 1′-[[5-chloro-1-(3-methylsulfonylpropyl)benzimidazol-2-yl]methyl]-N-isopropyl-2′-oxo-spiro[azetidine-3,3′-indoline]-1-carboxamide] | > 4.93e+06 | 0.0204 nM |
| CC(C)NC(=O)N1CCC2(CC1)C(=O)N(Cc1cc3cc(Cl)ccc3n1CCCC#N)c1cnccc12 [Co. No. 28, 1′-[[5-chloro-1-(3-cyanopropyl)indol-2-yl]methyl]-N-isopropyl-2′-oxo-spiro[piperidine-4,3′-pyrrolo[2,3-c]pyridine]-1-carboxamide] | 25400 | 2.14 nM |
| CNC(=O)N1CCC2(CC1)C(=O)N(Cc1cc3cc(Cl)ccc3n1CCCC#N)c1cnccc12 [Co. No. 25, 1′-[[5-chloro-1-(3-cyanopropyl)indol-2-yl]methyl]-N-methyl-2′-oxo-spiro[piperidine-4,3′-pyrrolo[2,3-c]pyridine]-1-carboxamide] | > 565000 | 0.178 nM |
| CN1CCC(NC(=O)N2CC3(C2)C(=O)N(Cc2cc4cc(Cl)ccc4n2CCCC#N)c2ccccc23)CC1 [Co. No. 5, 1′-[[5-chloro-1-(3-cyanopropyl)indol-2-yl]methyl]-N-(1-methyl-4-piperidyl)-2′-oxo-spiro[azetidine-3,3′-indoline]-1-carboxamide] | 10000 | 3.16 nM |
| O=C(NC1CCOCC1)N1CC2(C1)C(=O)N(Cc1nc3nc(Cl)ccc3n1CCCC(F)(F)F)c1ccccc12 [Co. No. 23, 1′-[[5-chloro-1-(4,4,4-trifluorobutyl)imidazo[4,5-b]pyridin-2-yl]methyl]-2′-oxo-N-tetrahydropyran-4-yl-spiro[azetidine-3,3′-indoline]-1-carboxamide] | > 61800 | 1.62 nM |
| CC(C)NC(=O)N1CC2(C1)C(=O)N(Cc1cc3cc(Cl)ccc3n1CCCS(C)(=O)=O)c1ccccc12 [Co. No. 1, 1′-[[5-chloro-1-(3-methylsulfonylpropyl)indol-2-yl]methyl]-N-isopropyl-2′-oxo-spiro[azetidine-3,3′-indoline]-1-carboxamide] | 357000 | 0.0891 nM |
| N#CCCCn1c(CN2C(=O)C3(CN(C(=O)NC4CCOCC4)C3)c3ccccc32)cc2cc(Cl)ccc21 [Co. No. 6, 1′-[[5-chloro-1-(3-cyanopropyl)indol-2-yl]methyl]-2′-oxo-N-tetrahydropyran-4-yl-spiro[azetidine-3,3′-indoline]-1-carboxamide] | 100000 | 0.316 nM |
| CN(C)CCN(C)C(=O)N1CC2(C1)C(=O)N(Cc1cc3cc(Cl)ccc3n1CCCS(C)(=O)=O)c1ccccc12 [Co. No. 15, 1′-[[5-chloro-1-(3-methylsulfonylpropyl)indol-2-yl]methyl]-N-[2-(dimethylamino)ethyl]-N-methyl-2′-oxo-spiro[azetidine-3,3′-indoline]-1-carboxamide] | 2570 | 7.59 nM |
